The source of these data is a melting point compilation (Tetko et al.).

For the molecule `ON=Cc1ccncn1`, the melting point is 150 to 152 °C.
Next, `COC(=O)/C=C1\SCC(=O)N1CCCCl`: 95 to 97 °C; `O=C(O)CCCCCNC1=NS(=O)(=O)c2ccccc21`: 189 to 191 °C; `Nc1cc(F)c(Br)cc1C(=O)O`: 189 to 191 °C.
The figure for `CCOc1ccc(-c2nnc(S)n2N)cc1` is 208 to 212 °C.
The figure for `O=C(O)c1ccc(NC2=NS(=O)(=O)c3ccccc32)cc1` is 369 to 371 °C; for `O=C(NC1CC1)c1cc([N+](=O)[O-])ccc1Cl` it is 180 to 182 °C.
`O=C(Nc1nncs1)c1ccc(O)cc1`: the melting point is 303 to 305 °C.
Next, `CNC(=CC(=O)c1ccccc1C)NC`: 206 to 208 °C; `NC(=NO)c1cccc(Oc2ccccc2)c1`: 66 to 68 °C; `Cc1ccc(S(=O)(=O)Cl)c([N+](=O)[O-])c1`: 97 to 99 °C.
`Cc1cc(S(=O)(=O)Cl)ccc1OC(C)C` registered a melting point of 50 to 52 °C.
Next, `O=C(Nc1ccccc1[N+](=O)[O-])c1ccc2ccccc2n1`: 73 to 75 °C; `CCNC(=O)NC1(C(=O)O)CCCC1`: 142 to 144 °C; `COc1ccc(NC(=O)c2ccccc2N)cn1`: 129 to 131 °C.
Next, `O=C(O)c1ccnc(OCC(F)(F)F)c1`: 109 to 111 °C.
Next, `Nc1ccc(Oc2ccc(Cl)cn2)cc1`: 70 to 72 °C; `N#Cc1cnn2c(O)cc(CCl)nc12`: 369 to 371 °C.
Turning to `NC(=NO)C1CCCC1`, the melting point was 74 to 76 °C.
On to `CCOC(=O)C(=O)NN`, for which the melting point lay within 39 to 41 °C.
The molecule `Cc1nc(/C=C/C(=O)O)cs1` gave a melting point of 177 to 179 °C.
On to `Nc1nnc(CC2CCCC2)o1`, for which the melting point lay in the range of 174 to 176 °C.
Next, `O=C(O)C=CC(=O)NCc1ccncc1`: 139 to 141 °C; `O=Cc1c(Cl)cccc1N1CCOCC1`: 74 to 76 °C.
The figure for `COCc1cc([N+](=O)[O-])ccc1Cl` is 43 to 45 °C.
Next, `O=c1cc(Cl)nc2ccc(Cl)cn12`: 219 to 221 °C.
For the molecule `COC(=O)c1cc2ccccc2cc1N`, the melting point lay within 99 to 101 °C.
In turn, `Cc1cc(C(=O)O)on1` returned a melting point of 199 to 201 °C.
Next, `Cc1nc(-c2ccc(Br)cc2)sc1C(C)O` (stereo not given): 119 to 121 °C; `CCOC(=O)/C(C#N)=C/Nc1ccc(OC)cc1OC`: 153 to 155 °C; `CC(C)(C)c1cc(NC(=O)CBr)on1`: 139 to 141 °C.
The figure for `O=S(=O)(Cl)c1ccc(Cl)nc1` is 48 to 50 °C; for `Cc1cc(NC(=O)OC(C)(C)C)sc1C` it is 102 to 104 °C.
Next, `Cc1ccc(C(N)c2cccc(S(C)(=O)=O)c2)cc1` (stereo not given): 73 to 75 °C; `Brc1cccn2cnnc12`: 184 to 186 °C.
As for `Nc1nnc(Cc2ccccc2)s1`, the melting point lay in the range of 170 to 179 °C.
The figure for `Cc1ccc2c(c1)nc(S)n2Cc1ccccc1Cl` is 189 to 191 °C; for `Fc1ccc(-n2c(S)nnc2-c2ccncc2)cc1` it is 165 to 175 °C; for `Nc1ccc(N2CCSCC2)cc1` it is 109 to 111 °C.
Next, `CCN(CC)S(=O)(=O)c1ccc(CCC(=O)O)cc1`: 150 to 152 °C; `O=C(O)c1ccccc1Oc1ccc(Cl)cc1Cl`: 161 to 163 °C; `Cn1c(CCl)nc2ccccc2c1=O`: 179 to 181 °C.
The figure for `Cc1cc(Cl)cc2cccnc12` is 62 to 64 °C; for `O=C(Nc1nc(C(F)(F)F)cs1)OCC(F)(F)F` it is 78 to 80 °C.
Molecule `COc1ccccc1N1C(=O)C=CC1=O` displayed a melting point of 90 to 91 °C.
Next, `O=C(Nc1cccc(Br)c1)C1CCNCC1`: 178 to 180 °C.
The figure for `CC(=O)N1CCN(S(=O)(=O)c2ccc(C(=O)O)cc2)CC1` is 277 to 279 °C; for `CC(=O)NC1CCC(=O)CC1` it is 136 to 140 °C; for `CC1CC1c1cc(N)n(-c2ccccc2)n1` (stereo not given) it is 92 to 94 °C.
The figure for `N#CCn1c(C(=O)O)cc2ccccc21` is 192 to 194 °C.
Regarding `O=C(O)/C=C/c1ccc(Cl)s1`, the melting point lay within 198 to 200 °C.
Next, `O=Cc1cn(Cc2ccccc2)nc1-c1cc2ccccc2o1`: 146 to 148 °C.
The figure for `COc1ccc2[nH]c(NCc3ccccc3)nc2c1` is 179 to 181 °C; for `[N-]=[N+]=Nc1ccnc(C(N)=O)c1` it is 169 to 171 °C; for `Cc1ccc(C(=O)O)cc1S(=O)(=O)N1CCOCC1` it is 176 to 178 °C.
The figure for `COc1ccc(-c2nn(Cc3ccccc3)cc2C(=O)O)cc1OC` is 110 to 114 °C; for `Fc1cccc2ncnc(Cl)c12` it is 139 to 141 °C.
`Cc1cc(CO)ccc1Cl` showed a melting point of 42 to 44 °C.
In the case of `O=C(c1cc(Cl)c(Cl)[nH]1)C(Cl)(Cl)Cl`, the melting point fell in the range of 129 to 131 °C.
Next, `Clc1nc(CSc2ccccc2)nc2sc3c(c12)CCCC3`: 55 to 57 °C.
The figure for `COC(=O)c1nc2nc(C(C)C)cc(Cl)n2n1` is 104 to 106 °C; for `Cn1cc(C(=O)O)c(C2CCCCC2)n1` it is 157 to 159 °C.
As to `O=C(O)Cc1ccc(OC(F)F)cc1`, the melting point is 78 to 80 °C.
`Cc1cc(C)cc(C2(C(=O)O)CC2)c1` gave a melting point of 164 to 166 °C.
Molecule `Cc1nc(Cl)c2c(-c3ccccc3)c(C)sc2n1` returned a melting point of 60 to 62 °C.
The figure for `CC(O)C(NC(=O)C1CC1)C(=O)O` (stereo not given) is 138 to 140 °C; for `CC(C)S(=O)(=O)c1ccc(CC(=O)O)cc1` it is 146 to 148 °C.
The figure for `CC(=O)c1cc(-c2ccccc2)ccc1O` is 49 to 51 °C; for `NC(=O)NCc1cccnc1` it is 182 to 184 °C; for `CN(C)c1ccc(C(=O)O)cc1[N+](=O)[O-]` it is 198 to 200 °C.
Next, `O=C(O)CCNS(=O)(=O)c1ccc(Cl)c([N+](=O)[O-])c1`: 113 to 115 °C; `O=C(O)CCNC(=O)C12CC3CC(CC(C3)C1)C2`: 185 to 187 °C.
As for `Cc1cc(C)c([N+](=O)[O-])c(C)c1C(=O)O`, the melting point was in the range of 169 to 171 °C.
Next, `c1cnc2c(c1)CCN2`: 79 to 81 °C.
As to `NC(=S)CC1CC1`, the melting point was in the range of 68 to 70 °C.
The figure for `NNc1ccc(Cl)nc1` is 131 to 133 °C.
Regarding `COC(=O)C(C)Sc1ccccc1C(=O)O` (stereo not given), the melting point fell in the range of 118 to 120 °C.
`Nc1ccc2c(c1)CCN2C(=O)c1ccoc1` yielded a melting point of 173 to 175 °C.
In turn, `CCOC(=O)c1sc2nc(N3CCOCC3)[nH]c(=O)c2c1C` displayed a melting point of 296 to 298 °C.
The figure for `O=c1[nH]c2ccc(NCc3cccc(Cl)c3)cc2[nH]1` is 217 to 219 °C; for `Nc1cccc(OCc2ccc(Cl)cc2)c1` it is 87 to 89 °C.
The figure for `O=C(Cn1c(Cl)nc2ccccc21)c1ccccc1` is 168 to 170 °C.
The figure for `CN(C)S(=O)(=O)c1ccc(C(=O)O)o1` is 177 to 179 °C; for `NC(=O)CCC(NS(=O)(=O)c1cccc(C(F)(F)F)c1)C(=O)O` (stereo not given) it is 164 to 166 °C.
Consider `CC(C)(C)OC(=O)N1CCC(I)CC1`, for which the melting point lay in the range of 44 to 46 °C.
The figure for `O=C(O)c1cnn(-c2ncccc2Cl)c1C(F)(F)F` is 149 to 151 °C; for `O=C(Nc1ncccc1O)c1ccc(C2SCCS2)cc1` it is 114 to 116 °C.
Next, `CC(C)(C)NC(=O)CC1(C(=O)O)CCCC1`: 201 to 203 °C; `Nc1nc2c(F)c(F)ccc2s1`: 49 to 51 °C; `COc1cc(C=O)ccc1OCC(=O)O`: 184 to 186 °C.
Next, `Nc1ccc(N2CCCC2)cc1C(=O)O`: 148 to 150 °C.
In turn, `O=C(O)CCC(Cc1ccc(Cl)cc1)C(=O)O` (stereo not given) displayed a melting point of 137 to 139 °C.
The figure for `Nc1ccccc1CN1C(=O)CCC1=O` is 108 to 110 °C; for `COc1cc(CCl)ccc1[N+](=O)[O-]` it is 49 to 51 °C.
Turning to `Cc1ccc(N)cc1-n1cnnn1`, the melting point was in the range of 113 to 115 °C.
Next, `O=C(Nc1ccccc1)NC1CCNCC1`: 169 to 171 °C.
The figure for `CNC1CCS(=O)(=O)c2ccc(Br)cc21` (stereo not given) is 108 to 110 °C.
The figure for `Clc1ccc(C2CNCCO2)cc1` (stereo not given) is 55 to 57 °C; for `CC(C)N1CCC(N2CCNCC2)CC1` it is 46 to 48 °C; for `COc1ccccc1-c1cc(N)n(-c2ccc(C)cc2)n1` it is 104 to 106 °C.
`N#CC1(O)CCOCC1` gave a melting point of 43 to 45 °C.
Next, `BrCc1ccc2c(c1)COC2`: 49 to 51 °C; `Cc1ccc(NS(=O)(=O)c2c[nH]c(C(=O)O)c2)c(C)c1`: 218 to 220 °C.
The figure for `Cc1c(NC(=O)C(C)Cl)cccc1[N+](=O)[O-]` (stereo not given) is 120 to 122 °C; for `Nc1cc(C2CC2)nn1-c1ccccc1` it is 134 to 136 °C; for `NC(=O)C1CCC(O)CC1` (stereo not given) it is 204 to 206 °C.
Next, `N#CCc1cc(Cl)ccc1Cl`: 92 to 94 °C.
As to `CCn1c(S)nnc1-c1cccs1`, the melting point is 103 to 105 °C.
Next, `Nn1c(S)nnc1-c1ccccc1F`: 184 to 186 °C; `Nc1ccc(C(O)c2ccccc2)cc1[N+](=O)[O-]` (stereo not given): 120 to 122 °C.
The molecule `CC(C)(C)CC(O)C(=O)O` (stereo not given) displayed a melting point of 71 to 73 °C.
Next, `CCCNC(=O)c1ccc(Cl)cc1[N+](=O)[O-]`: 107 to 109 °C; `O=C(O)Cn1c(=O)oc2cc([N+](=O)[O-])ccc21`: 214 to 216 °C.
The figure for `O=C1C=C(O)C(=O)c2ccccc21` is 192 to 194 °C.
The figure for `CS(=O)Cc1cc(N)ccc1Cl` (stereo not given) is 200 to 202 °C; for `Cc1ccc(-c2ccsc2C(=O)NN)cc1` it is 270 to 273 °C.
`NC(=S)NCCc1cccs1` gave a melting point of 127 to 129 °C.
Molecule `O=C(CCl)NNC(=O)c1cccc(Cl)c1` registered a melting point of 155 to 157 °C.
The figure for `Nc1ccccc1NC(=O)c1ccc2ccccc2n1` is 151 to 153 °C; for `O=C(O)c1csc(-c2ccc([N+](=O)[O-])cc2)n1` it is 198 to 200 °C.
